Data on one compound can be found in paper PMC2229062 (The Journal of General Physiology, 1991).

The test concerns GK (G protein coupled to the muscarinic K+ channel IK.ACh). Kind of test: inside-out patch clamp, inhibition of GTP-induced IK.ACh openings, Hill fit. The class given is biochemical, Cavia porcellus. Particulars: no agonist; against 10 µM GTP; same; assumed competitive with GTP.

What is called IC50 is the concentration needed to halve the response being measured. Higher therefore signals weaker potency. In turn, `Nc1nc2c(ncn2[C@@H]2O[C@H](COP(=O)(O)OP(=O)(O)O)[C@@H](O)[C@H]2O)c(=O)[nH]1` [GDP] registered a concentration for half-maximal inhibition (IC50) of 510 nM.
